One may read the IC50 as the point on the concentration scale where inhibition reaches its midpoint. One may read the inhibition as how much of the control response was suppressed. Broadly, the LD50 is the dose at which mortality reaches 50%.

This is an account of results in paper PMC6385122, “Design and Synthesis of Arylamidine Derivatives as Serotonin/Norepinephrine Dual Reuptake Inhibitors” (Molecules, 2019).

The target in series [1] is T1, 5-HT reuptake (5-HT transporter) (Rattus norvegicus, UniProt P31652).
T1 construct: from tissue; host or cells: Wistar rat brain (procerebrum; crude synaptosomal supernatant)
Kind of series: Inhibition of 5-HT reuptake in rat brain synaptosome (3H-5-HT uptake). The class given is biochemical. The settings on record: for inhibition at 10 µM: read-out: 5-HT reuptake percent inhibition. Here is the method:
(§1) All the target compounds were evaluated for their inhibitory activity against the reuptake of 5-HT and NE at the cellular level. Rat brain tissue was used for the uptake test, which included ^3H-5-HT and ^3H-NE [15]. 1-[7,8-^3H]-Noradrenaline and 5-hydroxy-[^3H]-tryptamine trifluoroacetate were obtained from Amersham Corporation.
(§2) Adult male Wistar rats were used. Animals were killed by decapitation and the whole brain, with the exception of the brainstem and cerebellum, was quickly removed. The procerebrum region was prepared, weighed, and homogenized in 10 volumes of ice-cold 0.32 mol/L sucrose solution using a glass homogenizer. The homogenate was centrifuged at 1000× g and 4 °C for 10 min. The supernatant was decanted and used for the uptake experiments. […] For each assay, three tubes were incubated with the vehicle (20 µL) at 0 °C in an ice bath. After incubation, the tubes were immediately filtered with a cell harvester. The fiberglass filter membrane was washed three times with ice-cold saline, placed in a scintillation vial, and counted in liquid scintillation cocktail (4 mL). Active uptake was the difference between the counts per minute at 37 and 0 °C. The percent inhibition at each drug concentration was the mean of three measurements.

For series [2], the system named is rats. Nature of the series: Tail suspension test (TST) in rats. The class given is in vivo, rat. The settings on record: male rats, 30 mg/kg PO; for Immobility Time: 60 min after administration; for Rate of Shorten Time (%): compared with the negative control group. As to the method:
Based on the in vitro results, compounds I-19, II-4, and II-5 were selected for the tail suspension test (TST) in rats. The TST has been used widely as a preclinical model for screening antidepressant activity, and it is sensitive to commercially available antidepressant drugs. In the assay, rats are suspended by tail and the time that the animal is immobile is recorded. The compounds were administered to male rats at a dose of 30 mg/kg (PO). […] In addition, the safety profile of compound II-5 was also explored with a preliminary acute toxicity test in mice at a single dose of 200 or 400 mg/kg (PO) (n = 6).
For two days before the formal experiment, the rats in each group were given doses orally once a day in the morning and in the afternoon. The rats were given doses orally once in each group in the formal experiment. After 60 min of administration, the rats were suspended head-down more than 50 cm from the ground with a 12-cm-long piece of insulating tape at a distance of 1 cm from the tail tip. The distance between adjacent rats was 15 cm. The immobility time of the rats was recorded. The rate of change in the immobility time of the rats in the test drug group and the positive control group was calculated and compared with the negative control group. Statistical analysis was performed using Prism 7.0 (GraphPad Software, San Diego, CA, USA).

The target of series [3] is T2, NE reuptake (NE transporter) (Rattus norvegicus, UniProt Q63380).
T2 construct: from tissue; host or cells: Wistar rat brain (procerebrum; crude synaptosomal supernatant)
Nature of the series: Inhibition of NE reuptake in rat brain synaptosome (3H-NE uptake). The class given is biochemical. Particulars: for inhibition at 10 µM: read-out: NE reuptake percent inhibition. Here is the method: as §1, §2

Series [4] is described as follows: Preliminary acute toxicity test in mice. The series is classed as in vivo. Particulars: male, ICR, mouse, in vivo; mice, PO, 20 h. As to the method: (§3) In the assay, rats are suspended by tail and the time that the animal is immobile is recorded. The compounds were administered to male rats at a dose of 30 mg/kg (PO).
(§4) Male ICR mice (20–25 g) were used from Institute of Materia Medica, Chinese Academy of Medical Sciences, Beijing, China. Mice were randomly divided into two groups with six mice each. Mice were orally given II-5 with a single dose 200 and 400 mg/kg or vehicle control, respectively. The mouse death was monitored for 20 h after treatment.

For series [5], the system named is mice. Kind of series: Preliminary acute toxicity test in mice. The series is classed as in vivo. The settings on record: male ICR mice, n = 6. As to the method: as §3, §4

Structures can show the parent of a compound that is named as a salt. Some results are limits rather than exact numbers.

T2 sequence (Q63380 1-617): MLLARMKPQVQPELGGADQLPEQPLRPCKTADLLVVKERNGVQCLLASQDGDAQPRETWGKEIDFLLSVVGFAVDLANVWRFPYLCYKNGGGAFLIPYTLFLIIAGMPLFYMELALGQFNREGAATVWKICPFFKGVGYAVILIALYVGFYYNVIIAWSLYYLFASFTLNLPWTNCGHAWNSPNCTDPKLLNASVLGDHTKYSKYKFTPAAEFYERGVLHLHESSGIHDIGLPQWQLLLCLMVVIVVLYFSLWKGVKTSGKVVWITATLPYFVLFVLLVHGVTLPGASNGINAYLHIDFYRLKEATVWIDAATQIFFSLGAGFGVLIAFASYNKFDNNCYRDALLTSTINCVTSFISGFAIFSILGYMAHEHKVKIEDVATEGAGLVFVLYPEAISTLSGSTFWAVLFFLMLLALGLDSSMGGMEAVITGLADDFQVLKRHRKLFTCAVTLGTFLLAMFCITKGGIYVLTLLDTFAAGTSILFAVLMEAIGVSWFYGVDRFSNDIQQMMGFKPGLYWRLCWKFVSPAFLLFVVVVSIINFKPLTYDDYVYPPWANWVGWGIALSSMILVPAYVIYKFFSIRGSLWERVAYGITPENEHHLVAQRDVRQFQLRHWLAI
T1 sequence (P31652 whole entry): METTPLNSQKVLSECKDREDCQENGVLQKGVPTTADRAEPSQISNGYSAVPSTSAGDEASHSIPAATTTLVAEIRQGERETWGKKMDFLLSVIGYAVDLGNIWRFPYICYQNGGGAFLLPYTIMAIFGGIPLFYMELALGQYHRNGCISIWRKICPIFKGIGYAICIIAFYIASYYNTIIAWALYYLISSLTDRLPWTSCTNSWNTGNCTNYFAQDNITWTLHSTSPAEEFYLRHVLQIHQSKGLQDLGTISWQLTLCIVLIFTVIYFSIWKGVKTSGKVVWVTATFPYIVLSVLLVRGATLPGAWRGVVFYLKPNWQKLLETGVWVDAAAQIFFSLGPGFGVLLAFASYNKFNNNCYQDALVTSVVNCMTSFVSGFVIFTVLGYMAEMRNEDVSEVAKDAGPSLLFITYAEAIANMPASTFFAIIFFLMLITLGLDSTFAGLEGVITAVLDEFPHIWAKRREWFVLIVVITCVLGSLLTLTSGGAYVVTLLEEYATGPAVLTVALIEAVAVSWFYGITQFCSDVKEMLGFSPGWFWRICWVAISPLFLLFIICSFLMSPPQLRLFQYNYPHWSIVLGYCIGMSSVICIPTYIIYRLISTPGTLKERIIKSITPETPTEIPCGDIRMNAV

With `N#Cc1cccc(/C(=N\Cc2ccc(Cl)cc2)N2CCNCC2)c1` [Compound I-19, (E)-1-(4-Chlorophenyl)-N-((3-cyanophenyl)(piperazin-1-yl)methylene)methanaminehydrochloride], in series [1], the IC50 was 0.83 µM and the inhibition at 10 µM was determined as 82%. Further, in series [2], the “Immobility Time” value is on record as 34 ± 17 s and the “Rate of Shorten Time (%)” value worked out at 37.8%. Also, in series [3], the concentration for half-maximal inhibition (IC50) was found to be 0.56 µM and the inhibition at 10 µM was 78%.

As to `CNCC[C@H](Oc1cccc2ccccc12)c1cccs1` [Duloxetine, reference compound], in series [2], the “Immobility Time” value worked out at 11 ± 5 s and the “Rate of Shorten Time (%)” value amounted to 79.0%.

On to `Fc1ccccc1/C(=N\Cc1cccc2ccccc12)N1CCNCC1` [II-4, (E)-N-((2-Fluorophenyl)(piperazin-1-yl)methylene)-1-(naphthalen-1-yl)methanaminehydrochloride], for which, in series [1], the half-maximal inhibitory concentration (IC50) came to 0.13 µM and the inhibition at 10 µM was found to be 90%. For the same compound, in series [2], the “Immobility Time” value stood at 33 ± 19 s and the “Rate of Shorten Time (%)” value amounted to 39.7%. Further, in series [3], the IC50 came to 0.88 µM and the inhibition at 10 µM was found to be 78%.

Consider `Clc1ccccc1/C(=N\Cc1cccc2ccccc12)N1CCNCC1` [II-5, (E)-N-((2-Chlorophenyl)(piperazin-1-yl)methylene)-1-(naphthalen-1-yl)methanaminehydrochloride], for which the IC50 in series [1] was 0.62 µM; in series [3], 0.01 µM. Further, the inhibition at 10 µM in series [1] is 81%; in series [3], 92%. In addition, the “Immobility Time” value in series [2] was found to be 18 ± 7 s. In addition, the “Rate of Shorten Time (%)” value in series [2] was determined as 67.8%. Further, the LD50 at 20 h in series [4] is over 400 mg/kg. For the same compound, the “Survival at 20 h” value in series [5] (single dose 200 mg/kg PO) and in series [5] (single dose 400 mg/kg PO) was 100% in each case.
